Results as given in patent US9730940B2, “Purine inhibitors of human phosphatidylinositol 3-kinase delta” (priority 2012, dated 2017).

Each compound was assayed against PI3K-alpha (Homo sapiens (Human), UniProt P42336) (assay: HTRF PI3K biochemical assay, alpha isoform). Conditions: ratio PI3K-alpha IC50 value/PI3K-delta IC50 value.
Chain of PI3K-alpha (P42336 whole entry, looked up, canonical isoform): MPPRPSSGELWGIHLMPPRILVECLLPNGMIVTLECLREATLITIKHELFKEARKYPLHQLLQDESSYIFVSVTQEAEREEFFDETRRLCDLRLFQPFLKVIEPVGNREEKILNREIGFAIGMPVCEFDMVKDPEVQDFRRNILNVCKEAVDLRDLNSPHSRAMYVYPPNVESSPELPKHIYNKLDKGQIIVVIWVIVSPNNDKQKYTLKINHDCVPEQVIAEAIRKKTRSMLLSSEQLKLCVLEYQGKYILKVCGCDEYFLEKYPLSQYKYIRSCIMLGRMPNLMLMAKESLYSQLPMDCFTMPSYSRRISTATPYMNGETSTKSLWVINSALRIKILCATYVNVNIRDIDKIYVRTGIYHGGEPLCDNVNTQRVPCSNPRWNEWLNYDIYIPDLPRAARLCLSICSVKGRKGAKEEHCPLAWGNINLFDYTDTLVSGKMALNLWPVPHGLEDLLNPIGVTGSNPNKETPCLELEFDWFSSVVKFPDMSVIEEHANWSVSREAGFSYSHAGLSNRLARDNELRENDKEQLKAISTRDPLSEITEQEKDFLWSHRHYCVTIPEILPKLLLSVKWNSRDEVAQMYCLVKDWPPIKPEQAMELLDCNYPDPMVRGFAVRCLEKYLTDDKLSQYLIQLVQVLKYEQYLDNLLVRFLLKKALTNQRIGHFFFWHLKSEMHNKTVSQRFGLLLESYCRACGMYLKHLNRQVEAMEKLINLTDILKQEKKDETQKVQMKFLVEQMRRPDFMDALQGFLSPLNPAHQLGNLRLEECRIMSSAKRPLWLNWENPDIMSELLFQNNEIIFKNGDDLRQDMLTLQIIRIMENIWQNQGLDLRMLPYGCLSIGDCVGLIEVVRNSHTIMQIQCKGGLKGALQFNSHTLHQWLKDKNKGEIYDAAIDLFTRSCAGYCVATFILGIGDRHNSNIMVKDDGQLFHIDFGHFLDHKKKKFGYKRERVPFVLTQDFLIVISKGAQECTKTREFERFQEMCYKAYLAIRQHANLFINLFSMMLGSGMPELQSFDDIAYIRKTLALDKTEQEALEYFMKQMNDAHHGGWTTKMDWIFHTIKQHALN
Chain of PI3K-alpha (P27986 whole entry partner, looked up, canonical isoform): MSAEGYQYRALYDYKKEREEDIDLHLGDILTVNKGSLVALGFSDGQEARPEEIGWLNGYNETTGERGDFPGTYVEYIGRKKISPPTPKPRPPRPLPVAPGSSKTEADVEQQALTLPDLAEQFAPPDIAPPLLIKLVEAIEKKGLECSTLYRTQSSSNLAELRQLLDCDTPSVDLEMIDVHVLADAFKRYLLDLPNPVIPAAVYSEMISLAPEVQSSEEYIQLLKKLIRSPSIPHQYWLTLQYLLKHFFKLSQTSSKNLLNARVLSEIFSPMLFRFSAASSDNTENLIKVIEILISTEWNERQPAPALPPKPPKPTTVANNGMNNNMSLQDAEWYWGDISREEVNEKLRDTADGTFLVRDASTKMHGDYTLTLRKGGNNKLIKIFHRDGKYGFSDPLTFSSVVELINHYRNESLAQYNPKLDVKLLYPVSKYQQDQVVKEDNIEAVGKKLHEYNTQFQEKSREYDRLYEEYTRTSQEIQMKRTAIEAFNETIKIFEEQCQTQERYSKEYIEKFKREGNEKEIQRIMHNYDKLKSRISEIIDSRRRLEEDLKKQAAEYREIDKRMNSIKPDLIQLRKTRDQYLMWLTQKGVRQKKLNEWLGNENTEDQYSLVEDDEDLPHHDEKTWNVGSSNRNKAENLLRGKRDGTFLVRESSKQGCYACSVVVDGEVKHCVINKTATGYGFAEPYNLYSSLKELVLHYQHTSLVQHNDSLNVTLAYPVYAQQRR

Structure (SMILES) | Relative Selectivity versus PI3Kalpha
CCC(=O)N1CC[C@H](Oc2ncnc3c2nc(Oc2ccc(OC)c(F)c2)n3C)C1 [Compound 12-4, 8-(3-fluoro-4-methoxyphenoxy)-9-methyl-6-{[(3S)-1-propanoylpyrrolidin-3-yl]oxy}-9H-purine] | >10
CCn1c(N(C)CC(C)C)nc2c(O[C@H]3CCN(C(=O)OC(C)(C)C)C3)ncnc21 [Compound 13-1, tert-butyl (3S)-3-({9-ethyl-8-[methyl(2-methylpropyl)amino]-9H-purin-6-yl}oxy)pyrrolidine-1-carboxylate] | >10
CCn1c(N(C)CCO)nc2c(O[C@H]3CCN(C(=O)OC(C)(C)C)C3)ncnc21 [Compound 13-2, tert-butyl (3S)-3-({9-ethyl-8-[(2-hydroxyethyl)(methyl)amino]-9H-purin-6-yl}oxy)pyrrolidine-1-carboxylate] | >10
CCn1c(N2CCC(S(C)(=O)=O)C2)nc2c(O[C@H]3CCN(C(=O)OC(C)(C)C)C3)ncnc21 (stereo partly drawn) [Compound 13-3, tert-butyl (3S)-3-({9-ethyl-8-[3-(methylsulfonyl)pyrrolidin-1-yl]-9H-purin-6-yl}oxy)pyrrolidine-1-carboxylate] | >10
CCn1c(N2CCC(C)CC2)nc2c(O[C@H]3CCN(C(=O)OC(C)(C)C)C3)ncnc21 [Compound 13-4, tert-butyl (3S)-3-{[9-ethyl-8-(4-methylpiperidin-1-yl)-9H-purin-6-yl]oxy}pyrrolidine-1-carboxylate] | >10
CCn1c(N2CCC(c3ccccc3)CC2)nc2c(O[C@H]3CCN(C(=O)OC(C)(C)C)C3)ncnc21 [Compound 13-5, tert-butyl (3S)-3-{[9-ethyl-8-(4-phenylpiperidin-1-yl)-9H-purin-6-yl]oxy}pyrrolidine-1-carboxylate] | >10
CCn1c(N(C)CCOC)nc2c(O[C@H]3CCN(C(=O)OC(C)(C)C)C3)ncnc21 [Compound 13-6, tert-butyl (3S)-3-({9-ethyl-8-[(2-methoxyethyl)(methyl)amino]-9H-purin-6-yl}oxy)pyrrolidine-1-carboxylate] | >10
CCn1c(N(C)C(C)C)nc2c(O[C@H]3CCN(C(=O)OC(C)(C)C)C3)ncnc21 [Compound 13-7, tert-butyl (3S)-3-({9-ethyl-8-[methyl(1-methylethyl)amino]-9H-purin-6-yl}oxy)pyrrolidine-1-carboxylate] | >10
CCn1c(N2CCC(C)C2)nc2c(O[C@H]3CCN(C(=O)OC(C)(C)C)C3)ncnc21 (stereo partly drawn) [Compound 13-8, tert-butyl (3S)-3-{[9-ethyl-8-(3-methylpyrrolidin-1-yl)-9H-purin-6-yl]oxy}pyrrolidine-1-carboxylate] | >10
CCC(=O)N1CC[C@H](Oc2ncnc3c2nc(C2=CCOCC2)n3CC)C1 [Compound 14-1, 8-(3,6-dihydro-2H-pyran-4-yl)-9-ethyl-6-{[(3S)-1-propanoylpyrrolidin-3-yl]oxy}-9H-purine] | >10
CCC(=O)N1CC[C@H](Oc2ncnc3c2nc(C2CC2)n3C)C1 [Compound 14-2, 8-cyclopropyl-9-methyl-6-{[(3S)-1-propanoylpyrrolidin-3-yl]oxy}-9H-purine] | >10
CCC(=O)N1CC[C@H](Oc2ncnc3c2nc(CC(C)C)n3CC)C1 [Compound 14-3, 9-ethyl-8-(2-methylpropyl)-6-{[(3S)-1-propanoylpyrrolidin-3-yl]oxy}-9H-purine] | >10
CCC(=O)N1CC[C@H](Oc2ncnc3c2nc(CC(C)C)n3C)C1 [Compound 14-4, 9-methyl-8-(2-methylpropyl)-6-{[(3S)-1-propanoylpyrrolidin-3-yl]oxy}-9H-purine] | >10
CCC(=O)N1CC[C@H](Oc2ncnc3c2nc(C(F)F)n3CC)C1 [Compound 14-5, 8-(difluoromethyl)-9-ethyl-6-{[(3S)-1-propanoylpyrrolidin-3-yl]oxy}-9H-purine] | >10
CCC(=O)N1CC[C@H](Oc2ncnc3c2nc(C(F)(F)F)n3CC)C1 [Compound 14-6, 9-ethyl-6-{[(3S)-1-propanoylpyrrolidin-3-yl]oxy}-8-(trifluoromethyl)-9H-purine] | >10
CCC(=O)N1CC[C@H](Oc2ncnc3c2nc(C(F)(F)F)n3C)C1 [Compound 14-7, 9-methyl-6-{[(3S)-1-propanoylpyrrolidin-3-yl]oxy}-8-(trifluoromethyl)-9H-purine] | >10
CCn1c(C(=O)NCC(F)(F)F)nc2c(O[C@H]3CCN(C(=O)OC(C)(C)C)C3)ncnc21 [Compound 15-1, tert-butyl (3S)-3-({9-ethyl-8-[(2,2,2-trifluoroethyl)carbamoyl]-9H-purin-6-yl}oxy)pyrrolidine-1-carboxylate] | >10
CCn1c(C(=O)NCC(F)(F)F)nc2c(O[C@H]3CCN(C(=O)N4CC(OC)C4)C3)ncnc21 [Compound 15-2, (S)-9-ethyl-6-((1-(3-methoxyazetidine-1-carbonyl)pyrrolidin-3-yl)oxy)-N-(2,2,2-trifluoroethyl)-9H-purine-8-carboxamide] | >10
CCn1c(C(=O)NCC2CC2)nc2c(O[C@H]3CCN(C(=O)OC(C)(C)C)C3)ncnc21 [Compound 15-3, tert-butyl (3S)-3-({8-[(cyclopropylmethyl)carbamoyl]-9-ethyl-9H-purin-6-yl}oxy)pyrrolidine-1-carboxylate] | >10
CCn1c(C(=O)NC2CCCCC2)nc2c(O[C@H]3CCN(C(=O)OC(C)(C)C)C3)ncnc21 [Compound 15-4, tert-butyl (3S)-3-{[8-(cyclohexylcarbamoyl)-9-ethyl-9H-purin-6-yl]oxy}pyrrolidine-1-carboxylate] | >10
CCNC(=O)c1nc2c(O[C@H]3CCN(C(=O)OC(C)(C)C)C3)ncnc2n1CC [Compound 15-5, tert-butyl (3S)-3-{[9-ethyl-8-(ethylcarbamoyl)-9H-purin-6-yl]oxy}pyrrolidine-1-carboxylate] | >10
